# Experimental data as given in ChEMBL document CHEMBL4813939, “Diterpenoids and Diacetylenes from the Roots of Aralia cordata with Inhibitory Effects on Nitric Oxide Production” (J Nat Prod, 2021).
# How the values were obtained:
# [1] = tested on: RAW264.7; assay: Anti-inflammatory activity in mouse RAW264.7 cells assessed as inhibition of LPS-induced NO production preincubated for 1 hr followed by LPS stimulation and measured after 24 hrs by Griess reagent based assay; format: functional, cell-based
# [2] = tested on: RAW264.7; assay: Cytotoxicity against mouse RAW264.7 cells assessed as reduction in cell viability by MTT assay; format: cell-based
SMILES,IC50 [1],Activity [2]
C=C[C@@]1(C)CC=C2C(CC[C@@H]3[C@](C)(CO)CCC[C@@]23C)C1 (stereo partly drawn),17.6 µM,Non-Toxic
C=C[C@@]1(C)CCC2=C(C1=O)[C@H](O)C[C@@H]1[C@](C)(C(=O)O)CCC[C@@]21C,21.7 µM,Non-Toxic
C[C@@]12CCC[C@@](C)(C(=O)O)[C@H]1CC[C@]13C=C(C=O)[C@H](CC[C@H]12)C3,14.2 µM,Non-Toxic
C=CCCCCC/C=C\[C@@H](C#CC#C[C@@H](O)CC)OC(C)=O,2.3 µM,Non-Toxic
C=CCCCCC/C=C\[C@H](O)C#CC#C[C@@H](O)CC [DENDROARBOREOL A],40.5 µM,Non-Toxic
C=C[C@]1(C)C=C2C(=O)C[C@H]3[C@@](C)(CCC[C@@]3(C)C(=O)O)[C@@H]2CC1,66.8 µM,Non-Toxic
C=C[C@@]1(C)CCC2=C(C1)C(=O)C[C@@H]1[C@](C)(C(=O)O)CCC[C@@]21C,14.9 µM,Non-Toxic
C=C/C(C)=C\C[C@@H]1C(=C)CC[C@@H]2[C@](C)(CO)CCC[C@@]12C,44 µM,Non-Toxic
C=C[C@H](O)C#CC#C[C@@H](O)/C=C\CCCCCCC,5.4 µM,Non-Toxic
C=C1[C@@H]2CC[C@H]3[C@]4(C)CCC[C@@](C)(C(=O)O)[C@H]4CC[C@]3(C2)[C@H]1O,25.4 µM,Non-Toxic
C=CCCCCC/C=C\[C@H](O)C#CC#CC(CC)OC(=O)/C=C/c1ccc(O)cc1 (stereo partly drawn),1.1 µM,Non-Toxic
N=C(N)NN [PIMAGEDINE],18.7 µM,
CC(C)CC(=O)OC[C@H](O)[C@]1(C)C=C2CC[C@H]3[C@@](C)(CCC[C@]3(C)C(=O)O)[C@@H]2CC1,35.1 µM,Non-Toxic
C=C[C@@]1(C)CCC2=C(CC[C@@H]3[C@](C)(C(=O)O)CCC[C@@]23C)C1=O,11.5 µM,Non-Toxic

# Now from value to compound, other results behind:
IC50 [1],SMILES,Activity [2]
69.4 µM,C[C@@]12CCC[C@@](C)(C(=O)O)[C@H]1CCC1=C[C@@](C)([C@H]3CO3)CC[C@H]12,Non-Toxic
10 µM,C=C[C@@]1(C)CC=C2[C@@H](CC[C@@H]3[C@](C)(C(=O)O)CCC[C@@]23C)C1=O,Non-Toxic
28.2 µM,CC(C)CC(=O)OC[C@@]1(O)C[C@@]23CC[C@H]4[C@@](C)(CCC[C@@]4(C)C(=O)O)[C@@H]2CC[C@@H]1C3,Non-Toxic
10.6 µM,C=C[C@]1(COC(=O)CC(C)C)C=C2CC[C@H]3[C@@](C)(CCC[C@@]3(C)C(=O)O)[C@@H]2CC1,Non-Toxic
5.4 µM,C=C1C[C@@]23CC[C@@H]4[C@](C)(CO)CCC[C@@]4(C)[C@@H]2CC[C@@H]1C3,Non-Toxic
47.8 µM,C[C@@]12CCC[C@@](C)(C(=O)O)[C@H]1CC[C@]13C=C(CO)[C@H](CC[C@H]12)C3,Non-Toxic
10.2 µM,C=C[C@]1(C)C=C2CC[C@@H]3[C@](C)(CO)CCC[C@@]3(C)[C@@H]2CC1,Non-Toxic
51.1 µM,C[C@@]12CCC[C@@](C)(C(=O)O)[C@H]1CC[C@]13C=C(C(=O)O)[C@H](CC[C@H]12)C3,Non-Toxic
